# Assay: Unbound exposure in blood (dry blood spots, LC/MSMS, fraction unbound by dialysis) in threshold tracking study
# Format: in vivo
# Settings: rat
# Procedure: In threshold tracking assay to measure the excitability properties of peripheral axons studies in rat, compound is administered by IP at 3, 10 or 30 mg/kg using 1% hydroxyethylcellulose: 0.25% polysorbate 80:0.05% antifoam:purified water (HEC) formulation. Dry blood spots (DBS) are collected around 10, 20, 30 and terminal 40 min post-dose. DBS samples are dried at RT for around 2 h. Brain samples are obtained at terminal time point and frozen until analysis. DBS samples are shipped and stored at RT.
# A 1-mg/mL stock solution of Example 1 is prepared and is serially diluted into pooled rat blood to prepare standards ranging from 1 to 10000 ng/mL. Blood wis spiked to blank DBS cards to make the standards. One 3 mm punch of the DBS standards or samples are added to 96 well plate and 180 μL of the internal standard (IS) in 1:1 ACN:MeOH is added. Shake for 45 min, dilute the extraction solution two fold with water, and analyze by LC/MSMS for drug concentration analysis.
# Samples and standards are analyzed with a Sciex API 4000 Triple Quadrupole Mass Spectrometer (Sciex, Division of MDS Inc., Toronto, Canada) coupled to a Shimadzu HPLC System (LC-IOAD, Shimadzu Corporation) and a Gilson 215 Autosampler. […] Quantitation is performed using multiple reaction monitoring (MRM) at the following transitions: Example 1 (m/z 350.2 to m/z 233.0) and an analog internal standard (m/z 263.1 to m/z 148.1). […]
# Drug binding to rat plasma proteins and brain homogenates is determined using in vitro dialysis method after spiking drug into these matrixes and incubated over 4.5 h at 37° C., while undergoing orbital shaking. […] Parent is quantitated by LC-MSMS at both 0 and […] time points. Fraction unbound is calculated by dividing the concentration of the buffer side by the concentration of the protein side. Percent recovery is also calculated by dividing the sum of the buffer and protein chambers by the time 0 concentration after 4.5 h. […]
structure (smiles),measurement,setting,value
"CC(C)(C)[C@H](O)CNC(=O)NCc1ccnc(OCC(F)(F)F)c1 [Example 1, 1-[(2S)-2-hydroxy-3,3-dimethyl-butyl]-3-[[2-(2,2,2-trifluoroethoxy)-4-pyridyl]methyl]urea]",Unbound Exposure in Blood (±SEM),3 mg/kg (IP),145 (±90) nM
same,Unbound Exposure in Blood (±SEM),10 mg/kg (IP),193 (±50) nM
same,Unbound Exposure in Blood (±SEM),30 mg/kg (IP),352 (±245) nM

# Reference: patent US12344584B2, “KCNQ potentiators” (Eli Lilly and Company, priority 2019, dated 2025)
